Tests used:
Hepatitis B virus [1] = test: Antiviral activity against HBV infected in human HepG2(2.2.15) cells assessed as inhibition of HBsAg secretion by enzyme immunoassay; assay type: functional, organism-based
[2] = Cytotoxicity against human HepG2(2.2.15) cells assessed as reduction in cell viability after 72 hrs by MTS assay; assay type: cell-based; settings: for CC50 at 72 h: HepG2(2.2.15) cells, read-out: TC50; for Activity: hepg2 2.2.15, 72 h
[3] = Selectivity index, ratio of TC50 for human HepG2(2.2.15) cells to IC50 for HBV infected in human HepG2(2.2.15) cells assessed as inhibition of HBsAg secretion
[4] = Selectivity index, ratio of TC50 for human HepG2(2.2.15) cells to IC50 for HBV infected in human HepG2(2.2.15) cells assessed as inhibition of HBeAg secretion
[5] = Selectivity index, ratio of TC50 for human HepG2(2.2.15) cells to IC50 for HBV infected in human HepG2(2.2.15) cells assessed as inhibition of viral DNA replication
Hepatitis B virus [6] = test: Antiviral activity against HBV infected in human HepG2(2.2.15) cells assessed as inhibition of HBeAg secretion by enzyme immunoassay; assay type: functional, organism-based
Hepatitis B virus [7] = test: Antiviral activity against HBV infected in human HepG2(2.2.15) cells assessed as inhibition of viral DNA replication after 48 hrs by SYBR Green based RT-PCR method; assay type: functional, organism-based; settings: HepG2 2.2.15, 48 h

SMILES	IC50 (Hepatitis B virus [1])	IC50 (Hepatitis B virus [6])	IC50 (Hepatitis B virus [7])	CC50 at 72 h [2]	Activity [2]	Selectivity Index [3]	Selectivity Index [4]	Selectivity Index [5]
O=[N+]([O-])c1ccc(S(=O)(=O)Oc2cc(-c3ccccn3)[nH]n2)cc1	125 µM			787 µM	Dose-dependent effect	6.28		
CS(=O)(=O)Oc1cc(-c2ccccn2)[nH]n1	287 µM			1060 µM	Dose-dependent effect	3.68		
Nc1ccn([C@H]2CS[C@@H](CO)O2)c(=O)n1			2.09 µM	352 µM				
O=[N+]([O-])c1ccccc1S(=O)(=O)Oc1cc(CSc2ccccn2)[nH]n1	6.25 µM	9.92 µM	6.3 µM	66.2 µM	Dose-dependent effect	10.6	6.68	10.51
O=[N+]([O-])c1ccccc1S(=O)(=O)Oc1cc(-c2ccccn2)[nH]n1	7.48 µM	12 µM	9.19 µM	326 µM	Dose-dependent effect	43.54	27.11	35.46
O=[N+]([O-])c1ccc(S(=O)(=O)Oc2cc(CSc3ccccn3)[nH]n2)cc1	4.8 µM	5.97 µM	5.56 µM	38.2 µM	Dose-dependent effect	7.97	6.41	6.88
COc1ccc(S(=O)(=O)Oc2cc(CSc3ccccn3)[nH]n2)cc1	14.5 µM	44.6 µM	38.1 µM	90.2 µM	Dose-dependent effect	6.21	2.02	2.37
COc1ccc(S(=O)(=O)Oc2cc(-c3ccccn3)[nH]n2)cc1	15.4 µM	23.1 µM	22.2 µM	87.5 µM	Dose-dependent effect	5.69	3.79	3.95
O=S(=O)(Oc1cc(CSc2ccccn2)[nH]n1)c1ccccc1	152 µM	20.3 µM	18.9 µM	103 µM	Dose-dependent effect	0.68	5.09	5.46

More lines, in order of falling IC50 (Hepatitis B virus [1]), values ahead:

IC50 (Hepatitis B virus [1])	IC50 (Hepatitis B virus [6])	IC50 (Hepatitis B virus [7])	SMILES	CC50 at 72 h [2]	Activity [2]	Selectivity Index [3]	Selectivity Index [4]	Selectivity Index [5]
1380 µM	1370 µM	1350 µM	O=c1cc(-c2ccccn2)[nH][nH]1	1060 µM	Dose-dependent effect	0.77	0.78	0.79
815 µM	590 µM	524 µM	O=c1cc(CSc2ccccn2)[nH][nH]1	1120 µM	Dose-dependent effect	1.37	1.89	2.13
210 µM			O=S(=O)(Oc1cc(-c2ccccn2)[nH]n1)c1ccc(Br)cc1	809 µM	Dose-dependent effect	3.85		
161 µM	679 µM	739 µM	CS(=O)(=O)Oc1cc(CSc2ccccn2)[nH]n1	830 µM	Dose-dependent effect	5.17	1.22	1.12
137 µM	69.5 µM	65.3 µM	O=S(=O)(Oc1cc(-c2ccccn2)[nH]n1)c1ccccc1	135 µM	Dose-dependent effect	0.99	1.94	2.07
115 µM	9.2 µM	6.07 µM	O=S(=O)(Oc1cc(CSc2ccccn2)[nH]n1)c1ccc(Br)cc1	52.4 µM	Dose-dependent effect	0.46	5.69	8.63
45.9 µM	82.9 µM	92.1 µM	O=S(=O)(Oc1cc(-c2ccccn2)[nH]n1)c1ccc(F)cc1	254 µM	Dose-dependent effect	5.53	3.06	2.76
26.2 µM	250 µM	197 µM	O=S(=O)(Oc1cc(CSc2ccccn2)[nH]n1)c1ccc(F)cc1	116 µM	Dose-dependent effect	4.44	0.46	0.59
23.2 µM	32.3 µM	31.3 µM	Cc1ccc(S(=O)(=O)Oc2cc(-c3ccccn3)[nH]n2)cc1	217 µM	Dose-dependent effect	9.35	6.71	6.92
19.8 µM	19.4 µM	14.3 µM	Cc1ccc(S(=O)(=O)Oc2cc(CSc3ccccn3)[nH]n2)cc1	86.4 µM	Dose-dependent effect	4.36	4.45	6.04
